# Assay results from BindingDB's records for doi:10.7270/Q2Q52N1X (Vanderbilt Screening Center for GPCRs, Ion Channels and …, 2009).
# Non-standard residues stand in square brackets, D forms with d. Residues, ends and D or L forms follow the SMILES beside them. ξ: configuration not given here. *: point of attachment. ξF = NC(Cc1ccccc1)C(=O)O; Cbz = O=C(OCc1ccccc1)*
# Target: T1, Solute carrier family 12 member 5 (Homo sapiens, UniProt Q9H2X9)
# T1 sequence (Q9H2X9 whole entry): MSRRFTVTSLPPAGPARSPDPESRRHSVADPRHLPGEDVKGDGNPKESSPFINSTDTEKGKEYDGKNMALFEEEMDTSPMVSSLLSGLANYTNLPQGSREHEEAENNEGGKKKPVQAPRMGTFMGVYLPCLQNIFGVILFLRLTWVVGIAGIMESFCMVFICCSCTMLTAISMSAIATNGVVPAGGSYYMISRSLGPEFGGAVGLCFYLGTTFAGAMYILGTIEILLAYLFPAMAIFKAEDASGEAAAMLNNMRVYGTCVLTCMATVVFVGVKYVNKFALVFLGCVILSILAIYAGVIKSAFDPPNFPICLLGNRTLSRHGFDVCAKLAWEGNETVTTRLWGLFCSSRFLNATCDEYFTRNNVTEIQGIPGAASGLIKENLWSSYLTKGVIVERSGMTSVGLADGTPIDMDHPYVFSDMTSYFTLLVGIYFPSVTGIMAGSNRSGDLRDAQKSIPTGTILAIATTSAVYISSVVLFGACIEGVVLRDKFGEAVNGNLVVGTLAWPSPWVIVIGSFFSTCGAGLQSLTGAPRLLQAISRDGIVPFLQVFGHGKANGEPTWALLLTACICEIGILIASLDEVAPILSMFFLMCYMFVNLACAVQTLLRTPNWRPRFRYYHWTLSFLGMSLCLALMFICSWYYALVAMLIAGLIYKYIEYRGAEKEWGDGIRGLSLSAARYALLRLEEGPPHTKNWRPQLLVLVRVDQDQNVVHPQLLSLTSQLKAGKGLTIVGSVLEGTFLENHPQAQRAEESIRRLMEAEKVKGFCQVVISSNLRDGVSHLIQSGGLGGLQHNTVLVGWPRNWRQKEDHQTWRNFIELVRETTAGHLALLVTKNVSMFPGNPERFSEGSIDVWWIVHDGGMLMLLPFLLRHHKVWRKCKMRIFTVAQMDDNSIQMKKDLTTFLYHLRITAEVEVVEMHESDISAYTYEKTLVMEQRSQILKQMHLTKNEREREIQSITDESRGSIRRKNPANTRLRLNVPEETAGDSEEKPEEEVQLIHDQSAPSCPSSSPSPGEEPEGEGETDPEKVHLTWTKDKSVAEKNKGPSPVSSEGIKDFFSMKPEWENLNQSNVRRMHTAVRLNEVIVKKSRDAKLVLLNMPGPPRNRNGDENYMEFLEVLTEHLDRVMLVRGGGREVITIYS
# Experiment: KCC2 modulator potency by thallium flux, dose response, cell-based, HEK293 KCC2, FluoZin-2 fluorescence (AID 1736)
# Conditions: not given
row,EC50,SMILES
1,2.61 µM,"O=C(Cn1cnc2c(nnn2Cc2ccc(F)cc2)c1=O)NCc1ccc2c(c1)OCO2 [2-[3-(4-fluorobenzyl)-7-keto-triazolo[4,5-d]pyrimidin-6-yl]-N-piperonyl-acetamide]"
2,5.5 µM,"O=[N+]([O-])c1cc(-n2c(O)c3c(c2O)CCCC3)ccc1NC1CCN(Cc2ccccc2)CC1 [2-[3-nitro-4-[[1-(phenylmethyl)-4-piperidinyl]amino]phenyl]-3a,4,5,6,7,7a-hexahydroisoindole-1,3-dione]"
3,17.7 µM,"O=C(CSc1nnc(-c2ccc(F)cc2)o1)N1CCN(C(=O)c2ccco2)CC1 [2-[5-(4-Fluoro-phenyl)-[1,3,4]oxadiazol-2-ylsulfanyl]-1-[4-(furan-2-carbonyl)-piperazin-1-yl]-ethanone]"
4,8190 µM,CC1CCCCN1C(=O)CSc1ccc(-c2ccc(F)cc2)nn1 (configuration not stated) [2-[6-(4-Fluoro-phenyl)-pyridazin-3-ylsulfanyl]-1-(2-methyl-piperidin-1-yl)-ethanone]
5,3.08 µM,CC1CCN(C(=O)CSc2ccc(-c3ccc(F)cc3)nn2)CC1 [2-[6-(4-Fluoro-phenyl)-pyridazin-3-ylsulfanyl]-1-(4-methyl-piperidin-1-yl)-ethanone]
6,0.182 µM,"Cc1cc(NC(=O)CSc2ccc(-c3ccc(F)cc3)nn2)no1 [2-[6-(4-fluorophenyl)pyridazin-3-yl]sulfanyl-N-(5-methyl-1,2-oxazol-3-yl)acetamide]"
7,2410 µM,"CCC(Cc1ccccc1)NC(=O)CN(C)S(=O)(=O)c1ccc2c(c1)c(=O)n(C)c(=O)n2C (configuration not stated) [2-[(1,3-dimethyl-2,4-dioxo-6-quinazolinyl)sulfonyl-methylamino]-N-(1-phenylbutan-2-yl)acetamide]"
8,3.96 µM,Cn1c(SCc2ccccc2Cl)nc2ccccc21 [2-[(2-chlorobenzyl)thio]-1-methyl-1H-benzimidazole]
9,86.4 µM,Cc1[nH]c2ccccc2c1SCC(=O)N1CCN(c2ccccc2)CC1 [2-[(2-methyl-1H-indol-3-yl)thio]-1-(4-phenyl-1-piperazinyl)ethanone]
10,276 µM,"Cc1ccc(/C=C2/Sc3ccccc3N(CC(=O)NCCCOC(C)C)C2=O)cc1 [2-[(2E)-2-[(4-methylphenyl)methylidene]-3-oxidanylidene-1,4-benzothiazin-4-yl]-N-(3-propan-2-yloxypropyl)ethanamide]"
11,3.8 µM,COc1ccc(S(=O)(=O)N(CCc2ccccc2)CC(=O)O)cc1Cl [2-[(3-chloranyl-4-methoxy-phenyl)sulfonyl-(2-phenylethyl)amino]ethanoic acid]
12,0.313 µM,O=C(NCCOc1ccccc1F)c1ccccc1SCc1ccc(F)cc1 [2-[(4-fluorobenzyl)thio]-N-[2-(2-fluorophenoxy)ethyl]benzamide]
13,1.64 µM,Cc1ccc(NC(=O)c2ccccc2NS(=O)(=O)c2ccc(Cl)s2)cc1 [2-[(5-chloranylthiophen-2-yl)sulfonylamino]-N-(4-methylphenyl)benzamide]
14,0.461 µM,"N#Cc1c(NC(=O)CSc2nc(N)cc(=O)[nH]2)sc2c1CCCCCC2 [2-[(6-amino-4-oxo-1H-pyrimidin-2-yl)sulfanyl]-N-(3-cyano-4,5,6,7,8,9-hexahydrocycloocta[b]thiophen-2-yl)acetamide]"
15,5.03 µM,CCOC(=O)CNC(=O)C(Cc1ccccc1)NC(=O)OCc1ccccc1 (configuration not stated) [2-[[1-oxo-3-phenyl-2-(phenylmethoxycarbonylamino)propyl]amino]acetic acid ethyl ester] (Cbz-[ξF]-Gly-OEt)
16,4.63 µM,"COc1ccc(-n2cnnc2SCC(=O)Nc2cc(S(=O)(=O)N3CCCCC3)ccc2C)cc1 [2-[[4-(4-methoxyphenyl)-1,2,4-triazol-3-yl]sulfanyl]-N-(2-methyl-5-piperidin-1-ylsulfonyl-phenyl)ethanamide]"

row,EC50,SMILES
1,82 µM,Cc1ccc(Cn2c(SCC(=O)Nc3cc(C)on3)nc3ccccc3c2=O)cc1 [2-[[4-keto-3-(4-methylbenzyl)quinazolin-2-yl]thio]-N-(5-methylisoxazol-3-yl)acetamide]
2,7.95 µM,Cc1ccc(C(=O)CC=Nc2ccccc2C(N)=O)cc1 [2-[[(E)-3-(4-methylphenyl)-3-oxidanylidene-prop-1-enyl]amino]benzamide]
3,15 µM,"COc1ccc(-c2cc(CNC(=O)CN(C)Cc3ccccc3)on2)cc1 [2-[benzyl(methyl)amino]-N-[[3-(4-methoxyphenyl)-1,2-oxazol-5-yl]methyl]acetamide]"
4,7.92 µM,CC(=O)NC(C)C(=O)OCC(=O)c1ccc(-c2ccccc2)cc1 (configuration not stated) [2-acetamidopropanoic acid [2-oxo-2-(4-phenylphenyl)ethyl] ester]
5,0.0676 µM,"CN(C)S(=O)(=O)c1cccc(NC(=O)c2cc3c(cc2Cl)N2CCCCC=C2NS3(=O)=O)c1 [2-chloranyl-N-[3-(dimethylsulfamoyl)phenyl]-5,5-bis(oxidanylidene)-8,9,10,11-tetrahydro-7H-azepino[2,1-c][1,2,4]benzothiadiazine-3-carboxamide]"
6,2.16 µM,"Cc1ccc(-c2csc(NC(=O)CCNC(=O)c3ccccc3Cl)n2)cc1 [2-chloranyl-N-[3-[[4-(4-methylphenyl)-1,3-thiazol-2-yl]amino]-3-oxidanylidene-propyl]benzamide]"
7,6.81 µM,"O=C(NC(=S)Nc1nc(-c2cccc([N+](=O)[O-])c2)cs1)c1ccccc1Cl [2-chloranyl-N-[[4-(3-nitrophenyl)-1,3-thiazol-2-yl]carbamothioyl]benzamide]"
8,31.3 µM,Cc1cc([N+](=O)[O-])ccc1NCc1ccccc1 [2-methyl-4-nitro-N-(phenylmethyl)aniline]
9,34.1 µM,"O=C(C1CCN(S(=O)(=O)c2cccc3nsnc23)CC1)N1CCc2ccccc2C1 [2-{[1-(2,1,3-benzothiadiazol-4-ylsulfonyl)piperidin-4-yl]carbonyl}-1,2,3,4-tetrahydroisoquinoline]"
10,5.35 µM,"Cc1noc(/C=C/c2ccco2)c1S(=O)(=O)N1CCC(C(=O)N2CCc3ccccc3C2)CC1 [2-{[1-({5-[(E)-2-(2-furyl)vinyl]-3-methylisoxazol-4-yl}sulfonyl)piperidin-4-yl]carbonyl}-1,2,3,4-tetrahydroisoquinoline]"
11,8.15 µM,"COc1cc(OC)c(C2=NOC(C(=O)N3CCc4ccccc4C3)C2)cc1Cl (configuration not stated) [2-{[3-(5-chloro-2,4-dimethoxyphenyl)-4,5-dihydro-5-isoxazolyl]carbonyl}-1,2,3,4-tetrahydroisoquinoline]"
12,4.18 µM,"O=C(C1CCN(S(=O)(=O)c2cccs2)CC1)N1CCc2ccccc2C1 [3,4-dihydro-1H-isoquinolin-2-yl-(1-thiophen-2-ylsulfonyl-4-piperidinyl)methanone]"
13,10.6 µM,"O=C(C1CCN(c2nnc(-n3cccc3)s2)CC1)N1CCc2ccccc2C1 [3,4-dihydro-1H-isoquinolin-2-yl-[1-(5-pyrrol-1-yl-1,3,4-thiadiazol-2-yl)-4-piperidyl]methanone]"
14,16 µM,"Cc1cc(C(=O)COC(=O)CCc2nc3ccccc3s2)c(C)n1C [3-(1,3-benzothiazol-2-yl)propanoic acid [2-oxo-2-(1,2,5-trimethyl-3-pyrrolyl)ethyl] ester]"
15,14.8 µM,"Cc1ccccc1OCC(=O)NNC(=O)CCN1C(=O)c2ccccc2C1=O [3-(1,3-dioxo-2-isoindolyl)-N'-[2-(2-methylphenoxy)-1-oxoethyl]propanehydrazide]"
16,1.18 µM,"Cc1ccc(/C=C2\SC(=S)N(c3c(C)n(C)n(-c4ccccc4)c3=O)C2=O)cc1 [3-(1,5-dimethyl-3-oxo-2-phenyl-2,3-dihydro-1H-pyrazol-4-yl)-5-(4-methylbenzylidene)-2-thioxo-1,3-thiazolidin-4-one]"

# Same assay, conditions: inactive by the depositor's call
row,EC50,SMILES
1,49 µM,"O=C(Cn1cnc2c(nnn2Cc2ccc(F)cc2)c1=O)NCc1ccco1 [2-[3-(4-fluorobenzyl)-7-keto-triazolo[4,5-d]pyrimidin-6-yl]-N-(2-furfuryl)acetamide]"
2,9.22 µM,"CCCCC(c1nnnn1Cc1ccco1)N1CCN(c2nc3ccccc3s2)CC1 (configuration not stated) [2-[4-[1-[1-(2-furanylmethyl)-5-tetrazolyl]pentyl]-1-piperazinyl]-1,3-benzothiazole]"
3,19.2 µM,C=CCNC(=O)NC(=O)CSc1nc2cc([N+](=O)[O-])ccc2n1-c1cccc(C(F)(F)F)c1 [2-[5-nitro-1-[3-(trifluoromethyl)phenyl]benzimidazol-2-yl]sulfanyl-N-(prop-2-enylcarbamoyl)acetamide]
4,18.7 µM,CN(C)S(=O)(=O)N(CC(=O)NCCSCc1ccccc1)c1ccccc1 [2-[N-(dimethylsulfamoyl)anilino]-N-[2-(phenylmethylthio)ethyl]acetamide]
5,24.7 µM,O=C(NCCSCc1ccccc1)c1cc(S(=O)(=O)N2CCOCC2)ccc1F [2-fluoranyl-5-morpholin-4-ylsulfonyl-N-[2-(phenylmethylsulfanyl)ethyl]benzamide]
